SMILES strings stand for the structures. Like-named read-outs stand apart in the source and are kept apart here. Where only a bound is given, the exact number is not on record here.

The results in this text go back to patent US20110092476A1, “Bicycloheteroaryl compounds as P2X7 modulators and uses thereof” (Renovis, Inc., priority 2006, published 2011).

In this assay the target is T1, P2X7 receptor (Homo sapiens, UniProt Q99572).
T1 construct: host or cells: THP-1 cells differentiated with LPS and IFN-γ
T1 sequence (Q99572 1-595): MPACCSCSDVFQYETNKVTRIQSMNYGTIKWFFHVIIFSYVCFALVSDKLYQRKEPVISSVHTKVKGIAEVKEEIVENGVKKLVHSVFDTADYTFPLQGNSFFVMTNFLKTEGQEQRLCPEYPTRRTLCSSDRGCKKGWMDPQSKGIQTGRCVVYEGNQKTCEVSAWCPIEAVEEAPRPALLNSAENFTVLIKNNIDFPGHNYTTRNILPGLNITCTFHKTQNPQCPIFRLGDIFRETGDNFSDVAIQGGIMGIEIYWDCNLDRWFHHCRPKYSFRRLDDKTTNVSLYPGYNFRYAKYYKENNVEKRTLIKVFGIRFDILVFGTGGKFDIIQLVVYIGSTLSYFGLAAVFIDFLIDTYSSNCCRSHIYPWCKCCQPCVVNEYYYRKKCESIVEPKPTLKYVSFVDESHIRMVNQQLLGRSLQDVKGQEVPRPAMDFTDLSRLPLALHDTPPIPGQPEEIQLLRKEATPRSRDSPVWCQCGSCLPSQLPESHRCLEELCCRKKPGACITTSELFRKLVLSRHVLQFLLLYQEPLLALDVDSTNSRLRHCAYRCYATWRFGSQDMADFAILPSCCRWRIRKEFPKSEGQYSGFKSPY
The assay is described as follows: IL-1β release assay in differentiated THP-1 cells stimulated with BzATP (Example 9). It counts as cell-based. The following applies: BzATP 250 uM; for inhibition at 0.1 µM / inhibition at 0.3 µM: differentiated THP-1 cells, read-out: IL-1β % Inhib. @ 0.3 or 0.1 uM. How it is done: THP-1 cells (ATCC Cat #285-IF-100) are plated in 96 well plates at a concentration of 200,000 cells per well and allowed to differentiate in RPMI-1640 media (ATCC Cat #30-2001) containing 10% FBS, 100 IU/mL penicillin, 100 ug/mL streptomycin, 100 ng/mL LPS and 100 ng/mL IFN-γ for 16 hours. Following differentiation, the cells are treated for an additional 2 hours in RPMI-1640 media containing 100 IU/mL penicillin, 100 ug/mL streptomycin and fresh LPS at 100 ng/mL. The cells are then pretreated for 30 minutes with the compound of interest at the appropriate concentration in RPMI media containing 100 IU/mL penicillin, 100 ug/mL streptomycin. Following the pretreatment 2′,3′-O-(4-benzoylbenzoyl)-adenosine 5′-triphosphate (Sigma Aldrich Cat #B6396) is added to a final concentration of 250 uM and the cells are incubated for an additional 45 minutes. 30 uL of cell supernatant is then collected and IL-1β levels determined via ELISA (R&D systems Cat. #HSLB50) according to manufacturer's recommendations using the Tecan Safire plate reader. Background adjusted IL-1β levels of drug treated and non-treated cells are used to calculate the percent inhibition.
The compounds set forth in Table 1 were tested for activity in a cellular model as described herein. Specifically, cells were pretreated with differing amounts of the compound under test and released IL-1β determined as in Example 9, above. Measurements were made and IC50 values, presented in Table 2, below, were determined by fitting the data to a four parameter logistic equation using GraphPad Prism software (GraphPad Software, Inc). The equation may be expressed by the following formula:
Y=Bottom+(Top−Bottom)/(1+10̂((Log EC50−X)*HillSlope))
Where X is the logarithm of concentration, Y is the response and Y starts at Bottom and goes to Top with a sigmoid shape.

For `CC(CO)n1ccc2c(NC(=O)c3cc(Cl)ccc3Cl)cccc2c1=O` (centres unmarked) [Compound 97], where the note is “0.1 μM compound (symbols *)”, the inhibition at 0.1 µM lay in the range of 0 to 25%.

With `O=C(Cc1cc(C(F)(F)F)ccc1Cl)Nc1cccc2c(=O)n(CCO)ccc12` [Compound 67], under “0.3 μM compound (symbols +)”, the inhibition at 0.3 µM lay within 0 to 25%. As to `O=C(Cc1ccccc1F)Nc1cccc2c(=O)n(CC3(O)CCCCC3)ccc12` [Compound 28], the inhibition at 0.3 µM (0.3 μM compound (symbols +)) was in the range of 0 to 25%. Take `COc1ccc(OC)c(CC(=O)Nc2cccc3c(=O)n(C(C)CO)ccc23)c1` (centres unmarked) [Compound 108]: the inhibition at 0.1 µM (0.1 μM compound (symbols *)) fell in the range of 0 to 25%. For `CC(C)(O)Cn1ccc2c(NC(=O)c3cc(Cl)cc(Cl)c3)cccc2c1=O` [Compound 203], under “0.1 μM compound, "*" symbols”, the inhibition at 0.1 µM lay within 0 to 25%. On to `O=C(Cc1ccc(C(F)(F)F)cc1)Nc1cccc2c1CCN(CCO)C2=O` [Compound 60], for which the inhibition at 0.3 µM (0.3 μM compound (symbols +)) fell in the range of 26 to 50%.

As to `O=C(CCc1cc(C(F)(F)F)cc(C(F)(F)F)c1)Nc1cccc2c(=O)n(CCO)ccc12` [Compound 61], the inhibition at 0.3 µM (0.3 μM compound (symbols +)) was in the range of 0 to 25%.

As for `O=C(CCc1ccccc1)Nc1cccc2c(=O)n(CCO)ccc12` [Compound 3], under “0.3 μM compound (symbols +)”, the inhibition at 0.3 µM lay within 51 to 75%. For `C[C@@H](CO)n1ccc2c(NC(=O)Cc3ccc(C(F)(F)F)cc3)cccc2c1=O` [Compound 318], the inhibition at 0.3 µM (0.3 μM compound, "+" symbols) lay in the range of 51 to 75%. `CC(CO)n1ccc2c(NC(=O)c3cc4ccccc4o3)cccc2c1=O` (centres unmarked) [Compound 112]: the inhibition at 0.1 µM (0.1 μM compound (symbols *)) lay in the range of 0 to 25%.

`COc1ccccc1CCC(=O)Nc1cccc2c(=O)n(CC3(O)CCCCC3)ccc12` [Compound 87]: under “0.1 μM compound (symbols *)”, the inhibition at 0.1 µM lay in the range of 0 to 25%. For `CC(C(=O)Nc1cccc2c(=O)n(CC3(O)CCCCC3)ccc12)c1ccccc1` (centres unmarked) [Compound 24], the inhibition at 0.1 µM (0.1 μM compound (symbols *)) was 26 to 50%. Still for that read-out and setting: for `CC(O)Cn1ccc2c(NC(=O)c3ccc(-c4ccccc4)cc3)cccc2c1=O` (centres unmarked) [Compound 146] the value was 0 to 25%. As for `CC(C)(O)Cn1ccc2c(NC(=O)Cc3ccccc3F)cccc2c1=O` [Compound 207], the inhibition at 0.1 µM (0.1 μM compound, "*" symbols) was in the range of 0 to 25%.

For the compound `Cc1ccccc1CCC(=O)Nc1cccc2c(=O)n(CC(C)O)ccc12` (centres unmarked) [Compound 126], under “0.1 μM compound (symbols *)”, the inhibition at 0.1 µM lay within 26 to 50%. Same read-out and setting: for `CC(CO)n1ccc2c(NC(=O)Cc3ccc4c(c3)OCO4)cccc2c1=O` (centres unmarked) [Compound 113] the value was 0 to 25%. The same measure, in the same setting: for `CCOc1ccc(C(=O)Nc2cccc3c(=O)n(CC(C)(C)O)ccc23)c(O)c1` [Compound 185] the value was 0 to 25%. Regarding `O=C(Cc1cc(C(F)(F)F)ccc1C(F)(F)F)Nc1cccc2c(=O)n(CCO)ccc12` [Compound 70], the inhibition at 0.3 µM (0.3 μM compound (symbols +)) was 26 to 50%.

Take `CS(=O)(=O)c1ccc(CCC(=O)Nc2cccc3c(=O)n(CCO)ccc23)cc1` [Compound 71]: the inhibition at 0.3 µM (0.3 μM compound (symbols +)) was in the range of 0 to 25%. Same read-out and setting: with `O=C(Cc1ccc(Cl)cc1Cl)Nc1cccc2c(=O)n(C(CO)CO)ccc12` [Compound 82] the figure was 51 to 75%. With `C[C@H](CO)n1ccc2c(NC(=O)Cc3ccc(F)c(Cl)c3)cccc2c1=O` [Compound 329], the inhibition at 0.3 µM (0.3 μM compound, "+" symbols) is 51 to 75%. Still for that read-out and setting: with `C[C@H](C(N)=O)n1ccc2c(NC(=O)Cc3cccc(Cl)c3)cccc2c1=O` [Compound 255] the figure was above 76%. In the case of `COc1ccccc1CCC(=O)Nc1cccc2c(=O)n(CC(C)O)ccc12` (centres unmarked) [Compound 149], the inhibition at 0.1 µM (0.1 μM compound (symbols *)) was 0 to 25%. Same read-out and setting: with `Cc1ccc(CC(=O)Nc2cccc3c(=O)n(CC(C)O)ccc23)cc1` (centres unmarked) [Compound 162] the figure was 0 to 25%.

Consider `CC(C)(CO)n1ccc2c(NC(=O)Cc3ccc(C(F)(F)F)c(F)c3)cccc2c1=O` [Compound 365], for which the inhibition at 0.3 µM (0.3 μM compound, "+" symbols) was above 76%. On the same count and under the same terms, with `C[C@H](C(N)=O)n1ccc2c(NC(=O)Cc3ccc(Cl)cc3Cl)cccc2c1=O` [Compound 314] the figure was above 76%. As for `CC(C)(O)Cn1ccc2c(NC(=O)Cc3ccccc3Cl)cccc2c1=O` [Compound 208], the inhibition at 0.1 µM (0.1 μM compound, "*" symbols) is 0 to 25%. For the compound `COc1cccc(CC(=O)Nc2cccc3c(=O)n(CC(C)O)ccc23)c1` (centres unmarked) [Compound 158], the inhibition at 0.1 µM (0.1 μM compound (symbols *)) is 0 to 25%. Still for that read-out and setting: for `Cc1ccccc1CCC(=O)Nc1cccc2c(=O)n(CC(C)(C)O)ccc12` [Compound 187] the value was 0 to 25%. Turning to `O=C(CCCc1ccccc1)Nc1cccc2c(=O)n(CC3(O)CCCCC3)ccc12` [Compound 36], where the note is “0.3 μM compound (symbols +)”, the inhibition at 0.3 µM is 26 to 50%. In the case of `O=C(Cc1ccc(F)cc1)Nc1cccc2c(=O)n(CCO)ccc12` [Compound 73], the inhibition at 0.3 µM (0.3 μM compound (symbols +)) lay within 26 to 50%. In the case of `CC(C)(O)Cn1ccc2c(NC(=O)c3ccc4ccccc4c3)cccc2c1=O` [Compound 206], the inhibition at 0.1 µM (0.1 μM compound, "*" symbols) lay within 0 to 25%. The IC50 is the concentration that gives 50% inhibition. With `CC(=O)NCCn1ccc2c(NC(=O)Cc3ccc(C(F)(F)F)c(F)c3)cccc2c1=O` [Compound 390], the inhibition at 0.3 µM (0.3 μM compound, "+" symbols) was 0 to 25%. Moreover, the concentration for half-maximal inhibition (IC50) (THP-1 cells, IL-1β by ELISA) is above 1 µM. As for `COc1ccc(CC(=O)Nc2cccc3c(=O)n(CC4(O)CCCCC4)ccc23)cc1OC` [Compound 31], the inhibition at 0.3 µM (0.3 μM compound (symbols +)) was 0 to 25%. Turning to `O=C(Cc1ccc(C(F)(F)F)cc1C(F)(F)F)Nc1cccc2c(=O)n(CCO)ccc12` [Compound 230], the inhibition at 0.3 µM (0.3 μM compound, "+" symbols) is above 76%. `CC(C)(CO)n1ccc2c(NC(=O)Cc3ccc(Cl)c(Cl)c3)cccc2c1=O` [Compound 371]: the inhibition at 0.3 µM (0.3 μM compound, "+" symbols) is 51 to 75%. Still for that read-out and setting: with `O=C(Cc1ccc(C(F)(F)F)cc1C(F)(F)F)Nc1cccc2c(=O)n(C(CO)CO)ccc12` [Compound 233] the figure was 26 to 50%.

As for `C[C@H](C(N)=O)n1ccc2c(NC(=O)Cc3cccc(C(F)(F)F)c3)cccc2c1=O` [Compound 297], under “0.3 μM compound, "+" symbols”, the inhibition at 0.3 µM was above 76%. Same read-out and setting: for `C[C@H](C(=O)Nc1cccc2c(=O)n([C@@H](C(N)=O)c3ccccc3)ccc12)c1ccc(Cl)c(Cl)c1` [Compound 278, (S)—N-[2-((R)-Carbamoyl-phenyl-methyl)-1-oxo-1,2-dihydro-isoquinolin-5-yl]-2-(3,4-dichloro-phenyl)-propionamide] the value was above 76%. On to `Cc1ccccc1CC(=O)Nc1cccc2c(=O)n(CC(C)O)ccc12` (centres unmarked) [Compound 157], for which the inhibition at 0.1 µM (0.1 μM compound (symbols *)) fell in the range of 0 to 25%. With `COc1cc(OC)cc(C(=O)Nc2cccc3c(=O)n(CC(C)O)ccc23)c1` (centres unmarked) [Compound 143], the inhibition at 0.1 µM (0.1 μM compound (symbols *)) lay in the range of 0 to 25%. For `COc1c(C)cc(C(=O)Nc2cccc3c(=O)n(CC4(O)CCCCC4)ccc23)cc1C` [Compound 40], the inhibition at 0.3 µM (0.3 μM compound (symbols +)) lay within 0 to 25%.

Consider `Cc1cc(C)cc(CC(=O)Nc2cccc3c(=O)n(CC(C)(C)O)ccc23)c1` [Compound 226], for which the inhibition at 0.1 µM (0.1 μM compound, "*" symbols) fell in the range of 0 to 25%. As to `CC(O)Cn1ccc2c(NC(=O)c3cc4ccccc4o3)cccc2c1=O` (centres unmarked) [Compound 164], the inhibition at 0.1 µM (0.1 μM compound (symbols *)) fell in the range of 0 to 25%. Regarding `COc1cccc(CC(=O)Nc2cccc3c(=O)n(CCO)ccc23)c1` [Compound 75], the inhibition at 0.3 µM (0.3 μM compound (symbols +)) was 0 to 25%.

For `Cc1cc(C(=O)Nc2cccc3c(=O)n(CC(C)O)ccc23)ccc1F` (centres unmarked) [Compound 175], where the note is “0.1 μM compound (symbols *)”, the inhibition at 0.1 µM lay in the range of 0 to 25%. As for `Cc1cc(Cl)ccc1C(=O)Nc1cccc2c(=O)n(CC(C)(C)O)ccc12` [Compound 221], the inhibition at 0.1 µM (0.1 μM compound, "*" symbols) fell in the range of 26 to 50%. For the compound `CC(O)Cn1ccc2c(NC(=O)c3cc(Cl)ccc3Cl)cccc2c1=O` (centres unmarked) [Compound 138], the inhibition at 0.1 µM (0.1 μM compound (symbols *)) was 0 to 25%.

In the case of `O=C(Nc1cccc2c(=O)n(CC3(O)CCCCC3)ccc12)c1cc2cc(Cl)ccc2o1` [Compound 54], where the note is “0.3 μM compound (symbols +)”, the inhibition at 0.3 µM was 26 to 50%.

Regarding `CC(CO)n1ccc2c(NC(=O)c3ccccc3Cl)cccc2c1=O` (centres unmarked) [Compound 95], the inhibition at 0.1 µM (0.1 μM compound (symbols *)) lay within 0 to 25%. In the case of `CC(O)Cn1ccc2c(NC(=O)c3ccc(-c4ccccc4)o3)cccc2c1=O` (centres unmarked) [Compound 127], under “0.1 μM compound (symbols *)”, the inhibition at 0.1 µM lay within 0 to 25%. For `CC(O)Cn1ccc2c(NC(=O)CCc3ccccc3Cl)cccc2c1=O` (centres unmarked) [Compound 133], where the note is “0.1 μM compound (symbols *)”, the inhibition at 0.1 µM was in the range of 26 to 50%.
